Source: patent US20050227266A1, “Biomarker:compound correlations in cancer diagnosis and therapy” (priority 2004, published 2005)

Tested on: NCI60 cell lines
Conditions: not told
Protocol: Compounds are tested according to a standard protocol (dtp.nci.nih.gov/branches/btb/ivclsp.html, reproduced as Appendix B), and GI50 data (i.e., data indicating the concentration of a compound that inhibits growth of a particular cell line by 50% after 48 hours of exposure) for many compounds, including a set of 171 so-called Standard Agents (dtp.nci.nih.gov/docs/cancer/searches/standard_agent.html, reproduced as Appendix C) are made publicly available.
Inventive biomarker:compound correlations are established by comparing the expression/activity expression and compound toxicity datasets. […] Such comparisons can quantify the association between the variables, e.g., using a Pearson or Spearman correlation. […] For example, to aid in the identification of non-linear relationships between compound toxicity and presence of a biomarker (e.g., a threshold response), values above or below a certain limit may be given a common value, or weighted, before the comparison is measured.
The present inventors established a gene expression profile for each of the 59 publicly-available NCI60 cell lines. […] Specifically, cDNAs that were detectable in fewer than 80% of the cell lines were discarded; approximately 17,000 unique genes were left whose measurements were recorded. […]

## CC(=O)O[C@H]1C(=O)[C@@]2(C)[C@H]([C@H](OC(=O)c3ccccc3)[C@]3(O)C[C@H](OC(=O)[C@H](O)[C@@H](NC(=O)c4ccccc4)c4ccccc4)C(C)=C1C3(C)C)[C@]1(OC(C)=O)CO[C@@H]1C[C@@H]2O [Paclitaxol]
  correlation of toxicity pattern with ABCB1 (PGP) gene expression: highest negative correlation
